These results are taken from patent US8883841B2, “Oncogenic ras-specific cytotoxic compound and methods of use thereof” (The Board of Regents of the University of Texas System, priority 2005, dated 2014).

Each structure is given as a SMILES string.

For one data set, the system named is T29Kt1 cells. Nature of the data set: cells. The note with it: Homo sapiens, T29Kt1, read-out: IC50 in T29k cells, Table 1.
For the next data set, the system named is Raf-1 mRNA. Description: RT-PCR analysis of Raf-1 mRNA in H460 cells. The format is cell-based, human. How it is done: (§1) FIGS. 10A-10D Effect of Oncrasin-1 on Raf-1 expression. (FIG. 10A) H460 cells were treated with various concentrations of Oncrasin-1 and harvested 24 h later for Western blot analysis. (FIG. 10B) Reverse transcriptase-based polymerase chain reaction (RT-PCR) assay. H460 cells treated with 1 μM Oncrasin-1 for various times or at various concentrations for 24 h, as indicated. (+, −, positive and negative controls). […] (FIG. 10D) Dose effects of Oncrasin-1 on stable cell lines transfected with Raf-1 plasmids. Parental H460 cells and H460 cells transfected with wild-type Raf-1 (Raf-1), constitutive Raf-1 (Raf-1C), or dominant-negative Raf-1 Raf-1/DN) were treated with various concentrations of Oncrasin-1, and cell viability was determined by SRB assay.
(§2) Suppression of Raf-1 expression by Oncrasin-1. […] To elucidate the roles of Raf-1 in Oncrasin-induced apoptosis, the inventors evaluated the expression of Raf-1 in H460 cells after treatment with different concentrations of Oncrasin-1. […] Because Raf-1 executes anti-apoptosis function via a variety of pathways. […] However, the resistance to Oncrasin-1 was more prominent in the constitutively active Raf-1-transfected cells than in cells with the wild-type Raf-1 (FIG. 10C and FIG. 10D).

Data set [1] relates to H460 cells transfected with Raf-1 constructs. Nature of the data set: SRB cell viability of H460 cells stably transfected with Raf-1 plasmids. The note with it: vs parental H460. The data set is classed as cell-based, human. How it is done: as §1, §2
In another data set the test system is phosphorylated PKCiota. Description: Western blot analysis of phosphorylated PKCiota. The format is cell-based, human. The note with it: 12 h. How it is done: Ras Signaling Pathway and Molecular Mechanisms of Oncrasin-induced apoptosis. To investigate molecular mechanisms of apoptosis induction by Oncrasin compounds, levels several proteins that are involved in apoptosis and/or involved in Ras signaling pathways were determined, including Bax, Bik, Bc12, Bcl-XL, Raf-1, B-Raf, Akt, Mst1 and atypical protein kinase C (aPKC) zeta and PKCiota. To study which molecules are affected by Oncrasin treatment, T29, T29Kt1 and H460 cells were treated with Oncrasin-1 at an optimal concentration, around IC60 to IC80 for T29Kt1 and H460 cells. Cell lysates were collected 12 h after the treatment and subjected to Western blot analysis.

The subject of data set [2] is phosphorylated RNA polymerase II and SR proteins. Nature of the data set: Western blot for phosphorylated RNA polymerase II and SR proteins. The format is cell-based, human. The note with it: 10 μM (T29Kt1) or 1 μM (H460), 12 h. As to the method:
(§3) FIGS. 16A and 16B Effect on RNA processing machinary. (FIG. 16A) T29, T29Kt1, and H460 cells were treated with 10 μM Oncrasin-1 (T29 and T29Kt1) or 1 μM Oncrasin-1 (H460). Twelve hours later, cells were harvested for Western blot analysis for phosphorylation of RNA polymerase II and SR proteins. Cells treated with DMSO were used as control (C). (T) cells treated with Oncrasin-1. Arrows indicate reduced phosphorylation of the polymerase II (pPolII) and SR proteins (pSR) (FIG. 16B) In vitro transcription assay with HeLa cell nuclear extracts (Promoega). The assay was performed following manufacturers instructions. The concentrations used are indicated on the top of the panel. DRB was used as positive control for transcription inhibition.
(§4) To further test the role of RNA transcription and splicing in Oncrasin-mediated antitumor activity the phosphorylation of the largest subunit of RNA polymerase II and splicing factors were analyzed. T29, T29Kt1 and H460 cells were treated with Oncrasin-1 at an optimal concentration, around IC60 to IC80 for T29Kt1 and H460 cells. Cell lysates were collected 12 h after the treatment and subjected to Western blot analysis with antibodies specific for phosphorylated RNA polymerase If (H5, Covance Research Products, Inc., Berkeley, Calif.) and SR proteins (1H4, Zymed, obtained from Invitrogen, Carlsbad, Calif.).

Data set [3] deals with RNA transcription (HeLa cell nuclear extracts). Nature of the data set: In vitro transcription assay with HeLa nuclear extracts. The format is biochemical. As to the method: as §3, §4
For data set [4], the system named is Raf-1, Akt, PKCzeta, PKCdelta, and p53. Nature of the data set: Immunohistochemical staining, subcellular localization of Raf-1, Akt, PKCzeta, PKCdelta, p53. The format is cell-based, human. The note with it: T29Kt1 or H460 cells, 12 h. How it is done: Effects on subcellular localization of PKCiota. […] To further investigate molecular mechanisms of Oncrasin action the inventors studied the subcellular localization of several molecules involved in Ras-signaling pathway because the functions of Ras and other proteins are directly related to their subcellular localizations. For this purpose, T29Kt1 or H460 cells were seeded on cover glass slides and treated with DMSO or Oncrasin-1 for 12 h. Cells were then fixed with paraformaldehyde, permeabilized with Triton X-100 and stained with various antibodies for immunohistochemical examination. […] Nevertheless, substantial subcellular localization change was detected for PKCiota after Oncrasin-1 treatment (FIG. 6). In both H460 and T29Kt1 cells, both PKCiota and PKCzeta were diffusely distributed in cells with high concentration on cell membrane in nucleus, consisting with previous reports that aPKC contains both nuclear localization signal (NLS) and nuclear export signal (NES), and can shuttle between cytoplasm and nucleus, which was regulated by intramolecular conformational changes, phosphorylation or by treatment with growth factors (Perander et al., 2001; White et al., 2002; Neri et al., 1999). […] Such aggregation of PKCiota was not observed in Oncrasin-resistant T29 and H1299 cells. […]

In a further data set the test system is wild-type MEF. Description: Icmt-dependent growth inhibition, wild-type MEF. The data set is classed as cell-based, mouse. The note with it: up to 100 μM. An excerpt:
Oncrasin and Oncrasin Analogs. Chemically, Oncrasin-1 has the same core structure as indole-3-carbinol, a naturally occurring constituent of many plant foods that has been tested for the prevention and treatment of cancer (Brignall, 2001; Kelloff et al., 1996; Chinni et al., 2001). Oncrasin-1 also has structural similarity to sulindac (Taylor et al., 2000; Sun et al., 2002) and lonidamine (Ravagnan et al., 1999; Papaldo et al., 2003), both of which have been evaluated preclinically and clinically for treatment of cancers. […] Oncrasin compounds also bear a indole core structure as the small-molecule inhibitor of isoprenylcysteine carboxylmethyltransferase (Icmt), 2-[5-(3-methylphenyl)-1-octyl-1H-indol-3-yl]acetamide (cysmethynil), which also induces antitumor activity in Ras gene mutant cancer cells (Winter-Vann et al., 2005). […] Both wild-type MEF and Icmt−/− MEF (Bergo et al., 2004) (kindly provided by Dr. S G Young at the University of California, San Francisco) were resistant to Oncrasin-1.

Turning to `OCc1cn(Cc2ccc(Cl)cc2)c2ccccc12` [Oncrasin K060, 1H-Indole-3-methanol, 1-[(4-chlorophenyl)methyl]-], in the data set on T29Kt1 cells, the IC50 was 79.4 nM.
Take `O=Cc1cn(Cc2ccc(Cl)cc2)c2ccccc12` [Oncrasin K001, 1H-Indole-3-carboxaldehyde, 1-[(4-chlorophenyl)methyl]-(9CI)]: in the data set with Raf-1 mRNA, the “Raf-1 mRNA level” value is “decreased in a dose- and time-dependent fashion”. Further, in data set [1], the “susceptibility of H460 cells transfected with dominant-negative Raf-1” value is on record as “more sensitive” and the “susceptibility of H460 cells transfected with wild-type or constitutively active Raf-1” value is “less susceptible than parental H460 cells”. Further, in the data set with phosphorylated PKCiota, the “phosphorylated PKCiota in H460 and T29K cells” value is listed as “increase in phosphorylated PKCiota”; the “phosphorylated PKCiota in T29 cells” value is “but not in Oncrasin-1 resistant T29 cells”. Moreover, the “phosphorylated RNA polymerase II and certain SR proteins” value in data set [2] is “dramatic suppression”. The “toxicity to T29H cells” value in the data set on T29Ht1 cells (at 33 μM (the highest concentration tested)) is on record as “not toxic”. Besides, in the data set with T29Ht1 cells (at any of the doses tested (dose response)), the “toxicity to T29Ht1 (T29H) cells” value was “not toxic”. The “cytotoxicity in T29Ht1 cells” value with T29Ht1 cells (up to 100 μM, the highest concentration tested) is on record as “no detectable cytotoxicity”. Moreover, in data set [3], the “in vitro RNA transcription” value was “does not inhibit in vitro RNA transcription directly”. The “subcellular localization of Raf-1, Akt, PKCzeta, PKCdelta, and p53” value in data set [4] is on record as “did not induce obvious changes”. Also, the “growth inhibition, wild-type MEF” value in the data set on wild-type MEF is “resistant”.
